Data taken from patent US20210386829A1, “COMPOSITIONS AND METHODS FOR MODULATING CGRP SIGNALING TO REGULATE INNATE LYMPHOID CELL INFLAMMATORY RESPONSES” (The Broad Institute, Inc., priority 2018, published 2021).
Several values for one entry are separate records, joined by “and”; a condition that tells them apart may be missing. Equal values may be shown once.

What was measured:
lung ILC2s = assay: expression profiles (RNA-seq) of lung ILC2s cultured with CGRP, IL-33 or both; type: cell-based, mouse
Protocol: RNA-Seq. For population (bulk) RNA-seq, sorted ILCs were lysed with RLT Plus buffer and RNA was extracted using the RNeasy Plus Mini Kit (Qiagen). Full-length RNA-seq libraries were prepared as previously described (Singer, M. et al. A Distinct Gene Module for Dysfunction Uncoupled from Activation in Tumor-Infiltrating T Cells. Cell 166, 1500-1511 e1509, doi:10.1016/j.cell.2016.08.052 (2016). and paired-end sequenced (75 bp×2) with a 150 cycle Nextseq 500 high output V2 kit.
Culture of innate lymphoid cells. Sort-purified innate lymphoid cells (ILCs) were cultured under sterile conditions in complete medium in a humidified incubator at 37° C. and 10% CO2. ILCs were plated at a density of 3,000-5,000 ILCs per well in a 96 well round-bottom plate in cell culture medium with 20 ng/ml IL-7. Depending on the experiment, different combinations of 200 ng/ml IL-25, 200 ng/ml IL-33, 1 ug/ml NMU and 100 nM CGRP were added either at start or after overnight culture with 20 ng/ml IL-7. After 6 hours or 3 days, culture supernatant was removed and frozen at −20° C. and ILCs were lysed in Extraction Buffer (PicoPure RNA isolation Kit; Thermo Fisher Scientific), incubated at 42° C. for 30 min and frozen at −80° C.

[1] = tested on: IL-33-induced airway inflammation in RAG2 KO mice; assay: IL-33-induced airway inflammation in RAG2 KO mice, intranasal co-administration of CGRP; type: in vivo, mouse; conditions: IL-33+CGRP vs IL-33 alone
From the text: Animals. All experiments involving mice were approved by the Institutional Animal Care and Use Committee (IACUC) at Brigham and Women's Hospital. Mice were maintained in the animal facility at Brigham and Women's Hospital under specific pathogen-free conditions with food and water ad libitum and a 12-hour dark/light cycle. Mice were age- and sex-matched for experiments and were randomly assigned to experimental groups. C57BL/6J mice and RAG2 KO mice were purchased from the Jackson Laboratory. CGRP-GFP-hDTR mice were kindly provided by I. Chiu (Harvard Medical School, Boston).
Cytokine-induced airway inflammation. Mice received nasally 500 ng IL-25, 500 ng IL-33, 20 ug NMU or 6.65 ug CGRP diluted in DPBS for three consecutive days. For nasal administration, mice were lightly anesthetized with Isoflurane (Cat #07-893-1389; Patterson Veterinary). For induction of inflammatory ILC2s, mice received intraperitoneally 500 ng IL-25 for three consecutive days. One day after the last treatment, mice were euthanized and perfused with 8 ml cold PBS via the right heart ventricle. After exposure of the trachea, a small incision was made at the top of the trachea and a curved gavage needle was inserted. Lungs were washed with 1.5 ml cold PBS via the needle and the retrieved bronchoalveolar lavage fluid was centrifuged at 1300 rpm for 5 min at 4 C. After centrifugation, the supernatant was frozen at −20° C. and the cell pellet was resuspended in 250 ul complete medium and stored on ice until flow cytometric analysis. The post-caval lung lobe was transferred into 10% buffered formalin and stored at room temperature until paraffin embedding for histological analysis. The other lung lobes were dissociated using the lung dissociation kit (Cat #130-095-927; Miltenyi Biotec) and automated tissue dissociator (gentleMACS; Miltenyi Biotec) as described above with the adjustment that after running program lung_02, the single cell suspension was centrifuged at 1300 rpm for 5 min at 4° C. and 1 ml of the supernatant was frozen at −20° C. Single-cell suspension was resuspended in complete cell culture medium and stored on ice until further processing.
For cell counts, lung cells were transferred into FACS tubes and stained with 7AAD. Precision Count Beads (Cat #424902; BioLegend) were added according to manufacturer's instructions. Cells and beads were acquired on a BD LSRFortessa (BD Biosciences) and cell numbers were calculated based on number of acquired live (7AAD−) cells and number of acquired beads.
For flow cytometric analysis, lung cells were transferred into a 96 well V-bottom plate and stained with surface antibodies for 20 min at 4° C. in the dark. Cells were washed twice with DPBS containing 2% fetal bovine serum and transferred into 1.2 ml tubes for analysis by flow cytometry. For intracellular cytokine staining, cells were incubated in complete cell culture medium with 50 ng/ml phorbol 12-myristate 13-acetate (Sigma-Aldrich), 1 uM ionomycin (Sigma-Aldrich) and GolgiStop (Cat #554724; BD Biosciences) in a humidified incubator at 37° C. and 10% CO2. After 5 hours, cells were transferred into 96 well V-bottom plate, stained with Fixable Viability Dye eFluor 506 (Cat #65-0866-14; Thermo Fisher) and surface antibodies for 20 min at 4° C. in the dark and washed twice with DPBS containing 2% fetal bovine serum. Then, cells were incubated with BD Cytofix/Cytoperm Buffer (Cat #51-2090KZ; BD Biosciences) for 20 min, followed by a wash with BD Perm/Wash Buffer (Cat #51-2091KZ; BD Biosciences). Subsequently, cells were incubated with antibodies targeting intracellular proteins diluted in BD Perm/Wash Buffer for 20 min and after two wash steps, transferred into 1.2 ml tubes for analysis by flow cytometry. […]

Substance: CGRP: neuropeptide calcitonin gene-related peptide (encoded by Calca), ligand of the Ramp1/Calcrl receptor; given at 100 nM in vitro, 6.65 ug nasally
- differentially expressed genes of CGRP alone shared with CGRP+IL-33 treatment (lung ILC2s; CGRP alone vs CGRP+IL-33): 112 genes
- genes associated with cell cycle progression (Mki67, Birc5, Kdm8) (lung ILC2s; CGRP treatment alone): down-regulated
- number of differentially expressed genes (lung ILC2s; CGRP treatment alone (IL-7+CGRP vs IL-7)): 331 genes
- Il13 and Arg1 expression (effector ILC2 genes) (lung ILC2s; IL-33+CGRP vs IL-33): significantly down-regulated
- genes associated with negative regulation of effector T cell responses (Pdcd1, Havcr2, Lilrb4, Entpd1, Tnfrsf18, FoxP3, Nfil3, Nr3c1, Fgl2) (lung ILC2s; IL-33+CGRP vs IL-33): upregulated
- number of differentially expressed genes up-regulated in the presence of CGRP (lung ILC2s; IL-33+CGRP vs IL-33, 3 days): 635 genes
- number of differentially expressed genes (lung ILC2s; IL-33+CGRP vs IL-33, 3 days, P<0.05, fold change >1.5): > 900 genes and 946 genes
- Ramp3 and Calca expression in ILC2s (lung ILC2s; with CGRP, confirmed by qPCR): upregulated
- Il5 and Il13 transcripts in lung tissue [1]: significantly reduced
- concentration of IL-5 and IL-13 protein in lung homogenates and BALF [1]: significantly reduced
- eosinophil numbers in lung tissue and BALF [1]: significantly reduced
- frequency of IL-5-positive ILCs [1]: no difference
- frequency of IL-13-positive ILC2s [1]: significantly lower
- total numbers of lung ILCs [1]: marked reduction
- frequency of lung ILCs ([1]; intranasal, three consecutive days): non-significant trend towards a reduced frequency
